# According to US12377087B2, “Compounds for the treatment of cancer” (UNIVERSITY OF LOUISVILLE RESEARCH FOUNDATION, INC., priority 2015, dated 2025):
# How the values were obtained:
# HCT116 = experiment: viable cell count of HCT116 cells; type: cell-based; details: HCT116, 48 hours
# Protocol: (§1) Cell Viability: Cells were incubated in 20% trypan blue (Sigma) for 5 minutes. Cells excluding trypan blue were counted using a standard hemocytometer (Hausser Scientific) to determine total numbers of viable cells. Data are expressed as mean±SD of three experiments.
# PFK-1 = experiment: kinase activity of PFK-1; type: biochemical; details: 10 μM
# H460 cells [1] = experiment: proliferation / viable cell count (trypan blue) of H460 cells; type: cell-based, human
# Protocol: Cell Viability: Cells were incubated in 20% trypan blue (Sigma) for 5 minutes. Cells excluding trypan blue were counted using a standard hemocytometer (Hausser Scientific) to determine total numbers of viable cells. Data are expressed as mean±SD of three experiments. Proliferation Assays: H460 non-small cell lung cancer cells were plated in 24 well plates and exposed to increasing concentrations of the indicated inhibitors of Formula IV (FBR1-02 corresponds to [drawing 47] DMSO was used as vehicle. After 24, 48 and 72 hours of exposure, cells were detached and viable cells were counted by Trypan blue exclusion (representative counts at 48 hours shown).
# LLC xenografts = experiment: Ki67 immunohistochemistry of LLC xenografts; type: in vivo, C57BL/6 mice; details: 120 mg/kg by gavage daily, two weeks
# Protocol: Immunohistochemistry: Formalin-fixed, paraffin-embedded tissue sections were processed as previously described then incubated with anti-Ki-67 primary antibody (Abeam) overnight, followed by HRP-linked goat anti-rabbit secondary antibody (1:300. Pierce). Sections were developed with 3,3′-diaminobenzidine tetrahydrochloride, counterstained, scanned and analyzed with the positive pixel count algorithm as previously described. Data are depicted as % positive pixels/total pixels±SD.
# MDA-MB-231 = experiment: viable cell count of MDA-MB-231 cells; type: cell-based; details: MDA-MB-231, 48 hours
# Protocol: as §1
# H460 cells [2] = experiment: F2,6BP measurements in H460 cells; type: cell-based, human
# Protocol: F2,6BP measurements: Cells or tissues were prepared as previously described and F2,6BP content measured using a coupled enzyme reaction following the method of Van Schaftingen et at (Van Schaftingen E et al. A kinetic study of pyrophosphate: fructose-6-phosphate phosphotransferase from potato tubers. Application to a microassay of fructose 2,6-bisphosphate. Eur J Biochem 1982 December; 129(1): 191-5) and normalized to total cellular protein measured by the bicinchoninic acid assay (BCA, Thermo Scientific). […] In order to measure F2,6BP, cells were harvested, washed with PBS, lysed in NaOH/Tris acetate by heating at 80° C. and lysates neutralized to pH 7.2. F2,6BP content was measured using a coupled enzyme reaction following the method of Van Schaftingen et al (Eur J Biochem. 1982; 129(1): 191-195). The F2,6BP concentration was normalized to total cellular protein measured by the bicinchoninic acid assay (BCA, Thermo Scientific) All data are expressed as the mean±SD of three experiments. Statistical significance was assessed by the two-sample t test (independent variable).
# LLC cells = experiment: in vitro cell cycle analysis of LLC cells; type: cell-based; details: 10 μM 5MPN
# Protocol: (§2) Flow Cytometry: To measure apoptosis, cells were stained with annexin V and propidium iodide and examined as previously described. […] DMSO used as vehicle. For cell cycle experiments, cells were detached, washed with cold PBS and fixed in 70% ethanol (4° C. 30 minutes). The cells then were pelleted by centrifugation, resuspended in PBS containing PI and RNase A, incubated at 37° C. in the dark for 30 minutes and analyzed by flow cytometry (BD FACSCalibur). Data were analyzed using FlowJo software (TREE STAR Inc.). Results were calculated as the mean±SD of three experiments.
# [3] = test system: H460 human lung adenocarcinoma xenografts; experiment: H460 xenograft tumor growth in athymic mice; type: in vivo, BALB/c athymic mice; details: 120 mg/kg oral daily
# H441 = experiment: viable cell count of H441 cells; type: cell-based; details: H441, 48 hours
# Protocol: as §1
# [4] = pharmacokinetic profile of 5MPN after IV and oral administration; type: in vivo; details: C57BL/6 mice
# Protocol: In vivo Studies. The pharmacokinetic profile was determined in female C57BL/6 mice following IV and oral administration of 5MPN. Using only female mice lowered the animal numbers required for meaningful results without issues of potential gender differences in exposure. Eight time points (n=3/time point) were used to determine PK parameters calculated using WinNonLin v5.0. Plasma samples were extracted using acetonitrile and analyzed by LC/MS-MS using a PhenomexSynergi Polar-RP 4 micron 50×2.0 mm column eluted with a biphasic mobile phase (0.5% formic acid in acetonitrile and water).
# H522 = experiment: viable cell count of H522 cells; type: cell-based; details: H522, 48 hours
# Protocol: as §1
# [5] = test system: panel of 97 protein kinases; experiment: KINOMEscan active-site dependent competition binding assay; details: 10 μM; data not shown
# Protocol: (§3) Kinase assays: The fructose-6-phosphate kinase activity of human recombinant PFKFB4 in the presence of DMSO±indicated 5MPN concentrations was assayed as previously described. The activity of 5MPN against 97 kinases was examined using a commercially available active-site dependent competition binding assay core service (KINOMEscanEDGE) that quantifies the capacity of lest agents to compete with an immobilized, active-site directed ligand using a DNA-tagged kinase and immobilized ligand and compound. For example, enzyme inhibition was studies using a ADP-Glo assay. […] ADP is converted into ATP, which is converted into light by a luciferase.
# A549 = experiment: viable cell count of A549 cells; type: cell-based; details: A549, 48 hours
# Protocol: as §1
# H1299 = experiment: viable cell count of H1299 cells; type: cell-based; details: H1299, 48 hours
# Protocol: as §1
# human recombinant PFKFB4 = human recombinant PFKFB4 (Homo sapiens, UniProt Q16877); experiment: fructose-6-phosphate kinase activity of human recombinant PFKFB4 (in vitro kinase assay); type: biochemical
# Sequence of human recombinant PFKFB4 (Q16877 whole entry): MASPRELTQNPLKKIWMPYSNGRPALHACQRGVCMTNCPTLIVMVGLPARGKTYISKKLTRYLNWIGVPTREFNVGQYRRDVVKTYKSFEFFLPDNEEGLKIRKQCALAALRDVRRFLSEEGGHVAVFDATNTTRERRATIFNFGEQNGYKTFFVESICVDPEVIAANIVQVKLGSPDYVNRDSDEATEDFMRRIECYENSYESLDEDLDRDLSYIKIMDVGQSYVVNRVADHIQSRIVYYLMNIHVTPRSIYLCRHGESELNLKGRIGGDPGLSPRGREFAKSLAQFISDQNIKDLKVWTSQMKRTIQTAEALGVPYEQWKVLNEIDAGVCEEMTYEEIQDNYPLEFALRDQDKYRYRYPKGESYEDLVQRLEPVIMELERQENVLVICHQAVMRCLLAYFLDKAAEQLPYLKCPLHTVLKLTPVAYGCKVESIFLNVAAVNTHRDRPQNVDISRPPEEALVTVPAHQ
# Protocol: as §3
# H460 cells [6] = experiment: cell cycle analysis by flow cytometry in H460 cells; type: cell-based, human
# Protocol: as §2
# H460 cells [7] = experiment: apoptosis by flow cytometry (annexin V / propidium iodide) in H460 cells; type: cell-based, human; details: H460, 10 μM 5MPN
# Protocol: as §2
# Lewis lung carcinomas = experiment: Lewis lung carcinoma tumor growth in mice; type: in vivo, C57BL/6 mice
# [8] = H460 transfected with PFKFB4, 10 μM 5MPN, 24 hours
compound,measurement,setting,value
"COc1cccc2c(NCCCCCO[N+](=O)[O-])ccnc12 [5MPN, 5-[(8-methoxyquinolin-4-yl)amino]pentyl nitrate]","growth, viable cells",HCT116,dose-dependent reduction in growth
same,inhibition of PFK-1 kinase activity,PFK-1,no inhibition of kinase activity
same,cell proliferation,"H460 cells [1]; H460, 24-72 hours",reduction in cell proliferation
same,"growth, viable cells","H460 cells [1]; H460, 48 hours",dose-dependent reduction in growth
same,anti-proliferative effect with over-expression of PFKFB4,H460 cells [1]; [8],protected
same,Ki67-positive cells in LLC xenografts,LLC xenografts,reduction in Ki67-positive cells
same,"growth, viable cells",MDA-MB-231,dose-dependent reduction in growth
same,"intracellular concentration of F2,6BP","H460 cells [2]; H460, 10 μM 5MPN, 6-72 hours",reduced
same,"reduction in F2,6BP with over-expression of PFKFB4",H460 cells [2]; [8],reversed
same,cell cycle arrest in LLC cells in vitro,LLC cells,G1 arrest
same,body weight,[3]; H460-bearing athymic mice,without affecting body weight
same,tumor growth of H460 xenografts,[3]; athymic mice,suppressed the growth
same,"growth, viable cells",H441,dose-dependent reduction in growth
same,oral bioavailability,[4],High Oral Bioavailability
same,pharmacokinetics of intravenous and oral administration,[4]; IV and oral,both routes were adequate to achieve potentially therapeutic concentrations
same,"growth, viable cells",H522,dose-dependent reduction in growth
same,inhibition of a panel of 97 protein kinases,[5],not inhibited
same,"growth, viable cells",A549,dose-dependent reduction in growth
same,"growth, viable cells",H1299,dose-dependent reduction in growth
same,PFKFB4 activity (kinase activity of recombinant PFKFB4),"human recombinant PFKFB4; 0, 0.1, 1 or 10 μM 5MPN, F6P 0-2000 μmol/L",significantly inhibited
same,"mode of inhibition, Lineweaver-Burk analyses",human recombinant PFKFB4; F6P binding site,competitive inhibitor
same,"cell cycle distribution (G1, S, G2)","H460 cells [6]; H460, 10 μM 5MPN",marked G1 arrest
same,G1 arrest with over-expression of PFKFB4,H460 cells [6]; [8],reversed
same,apoptotic cells,H460 cells [7],minimal increase
same,body weight,"Lewis lung carcinomas; LLC-bearing C57BL/6 mice, 120 mg/kg oral daily",without affecting body weight
same,tumor growth of Lewis lung carcinomas,"Lewis lung carcinomas; syngeneic C57BL/6 mice, 120 mg/kg daily by gavage, two weeks",suppressed the growth
